Measured values taken from patent publication US20100099676A1 (SHIONOGI & CO., LTD., priority 2006, published 2010).
Like-named read-outs stand apart in the source and are kept apart here.

Key:
Experiment in all cases: Enzyme inhibiting activity of MMPs, fluorogenic peptide substrate
Format in all cases: biochemical
MMP-2 = molecular target: T1, MMP-2 (Homo sapiens, UniProt P08253); conditions: substrate MOCAc-Pro-Leu-Gly-Leu-A2Pr(DNP)-Ala-Arg-NH2, fluorescent intensity
T1 construct: purchased Calbiochem (EMD/MERCK Biosciences)
T1 sequence (P08253 110-660): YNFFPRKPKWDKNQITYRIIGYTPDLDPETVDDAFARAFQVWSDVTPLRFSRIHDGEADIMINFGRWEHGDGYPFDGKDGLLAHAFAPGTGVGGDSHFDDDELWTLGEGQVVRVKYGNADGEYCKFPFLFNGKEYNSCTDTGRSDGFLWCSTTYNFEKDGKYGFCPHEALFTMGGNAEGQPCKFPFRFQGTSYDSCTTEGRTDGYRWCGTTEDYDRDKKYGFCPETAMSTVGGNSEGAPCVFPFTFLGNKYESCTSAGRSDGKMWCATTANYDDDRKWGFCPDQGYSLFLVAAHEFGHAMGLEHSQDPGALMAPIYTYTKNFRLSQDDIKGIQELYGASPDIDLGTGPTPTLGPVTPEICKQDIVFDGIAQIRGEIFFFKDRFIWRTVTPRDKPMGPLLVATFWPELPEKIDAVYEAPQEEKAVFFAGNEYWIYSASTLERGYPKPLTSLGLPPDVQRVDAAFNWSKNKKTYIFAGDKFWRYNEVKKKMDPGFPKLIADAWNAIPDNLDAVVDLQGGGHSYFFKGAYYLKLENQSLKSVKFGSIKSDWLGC
Protocol: (§1) Various human MMPs (MMP-2, MMP-9 and MMP-13) were purchased from Calbiochem (EMD/MERCK Biosciences).
(§2) The enzyme activity of MMPs was measured according to the method described in C. Graham Knight, Frances Willenbrock and Gillian Murphy: A novel coumarin-labelled peptide for sensitive continuous assays of the matrix metalloproteinases: FEBS LETT., 296, (1992), 263-266. As a substrate, MOCAc-Pro-Leu-Gly-Leu-A2Pr(DNP)- Ala-Arg-NH2 (Peptide Institute, Inc. Osaka, Japan) was used, and the following four assays are performed per compound (inhibitor) for measuring the inhibiting activity.
(§3) (A) Substrate (synthetic substrate), enzyme (MMPs), inhibitor
(§4) (B) Substrate (synthetic substrate), inhibitor
(§5) (C) Substrate (synthetic substrate), enzyme (MMPs)
(§6) (D) Substrate (synthetic substrate)
(§7) In each assay, the fluorescent intensity was measured, and inhibition (%) was calculated by the following equation.
(§8) Inhibition (%)=[I−(A−B)/(C−D)]×100
(§9) IC50 indicates a concentration at which inhibition (%) is 50%.

MMP-9 = molecular target: T2, MMP-9 (Homo sapiens, UniProt P14780); conditions: substrate MOCAc-Pro-Leu-Gly-Leu-A2Pr(DNP)-Ala-Arg-NH2, fluorescent intensity
T2 construct: purchased Calbiochem (EMD/MERCK Biosciences)
Protocol: as §1, §2, §3, §4, §5, §6, §7, §8, §9

MMP-13 = molecular target: T3, MMP-13 (Homo sapiens, UniProt P45452)
T3 construct: purchased Calbiochem (EMD/MERCK Biosciences)
Protocol: as §1
Since the purchased MMP-13 was Proenzyme, the activated one was used, which was incubated at 37° C. for 2 hours after the successive addition of an assay buffer (containing 50 mM Tris-HCl (pH7.6), 0.3 M NaCl, 10 mM CaCl2, 0.005% Brij35) and APMA (final concentration 1 mM) to the enzyme solution.
as §2, §3, §4, §5, §6, §7, §8, §9

[1] = APMA-activated proenzyme, substrate MOCAc-Pro-Leu-Gly-Leu-A2Pr(DNP)-Ala-Arg-NH2, fluorescent intensity, read-out: IC50 MMP-13
[2] = compounds not described in the Tables, read-out: inhibiting activity for MMP-13

T2 sequence (P14780 94-707): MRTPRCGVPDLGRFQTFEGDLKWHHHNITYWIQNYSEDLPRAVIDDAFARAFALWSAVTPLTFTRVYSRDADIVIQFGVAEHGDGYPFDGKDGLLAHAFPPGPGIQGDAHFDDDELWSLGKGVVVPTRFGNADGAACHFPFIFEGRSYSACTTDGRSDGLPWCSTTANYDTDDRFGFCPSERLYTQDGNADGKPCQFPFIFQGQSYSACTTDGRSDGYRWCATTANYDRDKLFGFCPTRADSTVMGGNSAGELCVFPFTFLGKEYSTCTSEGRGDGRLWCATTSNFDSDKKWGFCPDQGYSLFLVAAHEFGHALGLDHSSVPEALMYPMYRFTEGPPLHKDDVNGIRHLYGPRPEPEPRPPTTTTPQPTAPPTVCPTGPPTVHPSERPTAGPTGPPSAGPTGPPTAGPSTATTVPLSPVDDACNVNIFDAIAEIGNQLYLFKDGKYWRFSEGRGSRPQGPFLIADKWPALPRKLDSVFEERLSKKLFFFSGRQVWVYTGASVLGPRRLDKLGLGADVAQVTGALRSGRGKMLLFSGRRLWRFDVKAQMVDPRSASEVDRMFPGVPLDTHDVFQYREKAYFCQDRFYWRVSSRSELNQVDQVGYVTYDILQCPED

Compound	IC50 (MMP-2)	IC50 (MMP-9)	IC50 (MMP-13; [1])	IC50 (MMP-13; [2])
(R)-2-{4-[4(1-methyloxazol-5-yl-1H-indol-5-ylethynyl)-phenyl]-piperazine-1-sulfonylamino}-proponic acid [Compound V-47]	1000 to 10000 nM	> 10000 nM	4 nM	
CC(C)[C@@H](NS(=O)(=O)N1CCN(c2ccc(C#Cc3ccnc(C(=O)NCc4cccc(Cl)c4)c3)cc2)CC1)C(=O)O [III-81, (R)-2-(4-{4-[2-(3-chrolobenzylcarbamoyl)-pyridin-4-ylethynyl]-phenyl}-piperazine-1-sulfonylamino)-3-methylbutanoic acid]	1000 to 10000 nM	> 10000 nM	6 nM	
CC(C)[C@@H](NS(=O)(=O)N1CCN(c2ccc(C#Cc3ccc4[nH]c(=O)n(Cc5ccc(Cl)cc5)c(=O)c4c3)cc2)CC1)C(=O)O [III-6, (R)-2-(4-{4-[3-(4-chrolobenzyl)-2,4-dioxo-1,2,3,4-tetrahydroquinazolin-6-ylethynyl]-phenyl}-piperazine-1-sulfonylamino)-3-methylbutanoic acid]	> 10000 nM	> 10000 nM	28 nM	
CC(C)COc1ccc(C#Cc2ccc(N3CCN(S(=O)(=O)N[C@H](C)C(=O)O)CC3)cc2)cc1C(=O)NCc1ccccc1 [III-121, (R)-2-{4-[4-(3-benzylcarbamoyl-4-isobutoxyphenylethynyl)-phenyl]-piperazine-1-sulfonylamino}-proponic acid]	> 10000 nM	> 10000 nM	25 nM	
(R)-3-methyl-2-{4-[4-(1-methyl2,4-dioxo-3-pyridin-4-ylmethyl-1,2,3,4-tetrahydroquinazolin-6-ylethynyl)-phenyl]-piperazine-1-sulfonylamino}-3-methylbutanoic acid [Compound V-77]	> 10000 nM	> 10000 nM	4 nM	
C[C@@H](NS(=O)(=O)N1CCN(c2ccc(C#Cc3ccc4cccc(/C=C/Cl)c4c3)cc2)CC1)C(=O)O [Compound I-72, (R)-2-(4-{4-[8-((E)-2-chlorovinyl)-naphthalen-2-ylethynyl]-phenyl}-piperazine-1-sulfonylamino)-proponic acid]				10 to 100 nM
C[C@@H](NS(=O)(=O)N1CCN(c2ccc(C#Cc3ccc4cccc(/C=C\C#N)c4c3)cc2)CC1)C(=O)O [Compound I-69, (R)-2-(4-{4-[8-((Z)-2-cyanovinyl)-naphthalen-2-ylethynyl]-phenyl}-piperazine-1-sulfonylamino)-proponic acid]				10 to 100 nM
Cc1cc(CNC(=O)c2cccc(/C=C/c3ccc(N4CCN(S(=O)(=O)N[C@H](C)C(=O)O)CC4)cc3)c2)ccc1F [Compound I-29, (R)-2-[4-(4-{(E)-2-[3-(4-fluoro3-methylbenzylcarbamoyl)-phenyl]-vinyl}-phenyl)-piperazine-1-sulfonylamino]-proponic acid]				10 to 100 nM
C[C@H](NS(=O)(=O)N1CCN(c2ccc(C#Cc3ccc4cccc(C(N)=O)c4c3)cc2)CC1)C(=O)O [Compound I-105, (S)-2-{4-[4-(8-carbamoylnaphthalen-2-ylethynyl)-phenyl]-piperazine-1-sulfonylamino}-proponic acid]				10 to 100 nM
C[C@@H](NS(=O)(=O)N1CCN(c2ccc(C#Cc3ccc4cccc(C(=O)NCCNC(=O)OC(C)(C)C)c4c3)cc2)CC1)C(=O)O [Compound I-62, (R)-2-(4-{4-[8-(2-tert-butoxycarbonylaminoethylcarbamoyl)-naphthalen-2-ylethynyl]-phenyl}-piperazine-1-sulfonylamino)-proponic acid]				10 to 100 nM
CC(=O)c1cccc2ccc(C#Cc3ccc(N4CCN(S(=O)(=O)N[C@@H](C(=O)O)C(C)C)CC4)cc3)cc12 [Compound I-101, (R)-2-{4-[4-(8-acetylnaphthalen-2-ylethynyl)-phenyl]-piperazine-1-sulfonylamino}-3-methylbutanoic acid]				10 to 100 nM
CC(C)C[C@H](NS(=O)(=O)N1CCN(c2ccc(C#Cc3ccc4cccc(C(N)=O)c4c3)cc2)CC1)C(=O)O [Compound I-55, (S)-2-{4-[4-(8-carbamoylnaphthalen-2-ylethynyl)-phenyl]-piperazine-1-sulfonylamino}-4-methylpentanoic acid]				10 to 100 nM
C[C@@H](NS(=O)(=O)N1CCN(c2ccc(C#Cc3ccc4cccc(/C=C/C#N)c4c3)cc2)CC1)C(=O)O [Compound I-67, (R)-2-(4-{4-[8-((E)-2-cyanovinyl)-naphthalen-2-ylethynyl]-phenyl}-piperazine-1-sulfonylamino)-proponic acid]				< 10 nM

Continued, values first:

IC50 (MMP-2)	IC50 (MMP-9)	IC50 (MMP-13; [1])	IC50 (MMP-13; [2])	Compound
1000 to 10000 nM	1000 to 10000 nM	9 nM		COc1ccc(C#Cc2ccc(N3CCN(S(=O)(=O)N[C@@H](C(=O)O)C(C)C)CC3)cc2)cc1C(=O)NCC#N [III-94, (R)-2-(4-{4-[3-(cyanomethylcarbamoyl)-4-methoxyphenylethynyl]-phenyl}-piperazine-1-sulfonylamino)-3-methylbutanoic acid]
> 10000 nM	> 10000 nM	17 nM		CC(C)[C@@H](NS(=O)(=O)N1CCN(c2ccc(C#Cc3ccc4[nH]c(=O)n(Cc5cccc(F)c5)c(=O)c4c3)cc2)CC1)C(=O)O [Compound V-65, (R)-2-(4-{4-[3-(3-fluorobenzyl)-2,4-dioxo-1,2,3,4-tetrahydroquinazolin-6-ylethynyl]-phenyl}-piperazine-1-sulfonylamino)-3-methylbutanoic acid]
1000 to 10000 nM	> 10000 nM	13 nM		COc1ccc(F)cc1-c1csc(C#Cc2ccc(N3CCN(S(=O)(=O)N[C@H](C)C(=O)O)CC3)cc2)n1 [Compound V-15, (R)-2-(4-{4-[4-(5-fluoro-2-methoxyphenyl)-thiazol-2-ylethynyl]-phenyl}-piperazine-1-sulfonylamino)-proponic acid]
> 10000 nM	> 10000 nM	21 nM		CC(C)[C@@H](NS(=O)(=O)N1CCN(c2ccc(C#Cc3ccc4[nH]c(=O)n(Cc5ccc(F)cc5)c(=O)c4c3)cc2)CC1)C(=O)O [III-72, (R)-2-(4-{4-[3-(4-fluorobenzyl)-2,4-dioxo-1,2,3,4-tetrahydroquinazolin-6-ylethynyl]-phenyl}-piperazine-1-sulfonylamino)-3-methylbutanoic acid]
100 to 1000 nM	> 10000 nM	1 nM		CC(C)[C@@H](NS(=O)(=O)N1CCN(c2ccc(C#Cc3ccnc(C(=O)NCc4ccc(S(N)(=O)=O)cc4)c3)cc2)CC1)C(=O)O [III-201, (R)-3-methyl-2-(4-{4-[2-(4-sulfamoylbenzylcarbamoyl)-pyridin-4-ylethynyl]-phenyl}-piperazine-1-sulfonylamino)-butanoic acid]
1000 to 10000 nM	1000 to 10000 nM	5 nM		COc1ccc(Cn2ccc3ccc(C#Cc4ccc(N5CCN(S(=O)(=O)N[C@H](C)C(=O)O)CC5)cc4)cc3c2=O)cc1 [Compound V-36, (R)-2-(4-{4-[2-(4-methoxybenzyl)-1-oxo-1,2-dihydroisoquinolin-7-ylethynyl]-phenyl}-piperazine-1-sulfonylamino)-proponic acid]
> 10000 nM	> 10000 nM	21 nM		CC(C)[C@@H](NS(=O)(=O)N1CCN(c2ccc(C#Cc3ccc4c(c3)c(=O)n(Cc3ccc(F)cc3)c(=O)n4C)cc2)CC1)C(=O)O [Compound V-60, (R)-2-(4-{4-[3-(4-fluorobenzyl)-1-methyl-2,4-dioxo-1,2,3,4-tetrahydroquinazolin-6-ylethynyl]-phenyl}-piperazine-1-sulfonylamino)-3-methylbutanoic acid]
1000 to 10000 nM	> 10000 nM	2 nM		CC(C)[C@@H](NS(=O)(=O)N1CCN(c2ccc(C#Cc3ccnc(C(=O)NCc4ccc5oc(=O)n(C)c5c4)c3)cc2)CC1)C(=O)O [Compound V-85, (R)-3-methyl-2-[4-(4-{2-[(3-methyl-2-oxo-2,3-dihydrobenzoxazol-5-ylmethyl)-carbamoyl]-pyridin-4-ylethynyl}-phenyl)-piperazine-1-sulfonylamino]-butanoic acid]
